PubChem BioAssay (NCI)
“And” between values parts separate entries of the source, which are not always exact repeats. Equal entries are not always repeated.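 How tested: cells in 96-well plates exposed to compound for 48 hours at five concentrations. GI50 = concentration required for 50% inhibition of growth. TGI: total growth inhibition.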

Key:
Test in all cases: inhibition of tumour cell growth, NCI panel, 48 h
SK-OV-3 ovarian = tested on: SK-OV-3 ovarian
CAKI-1 renal = tested on: CAKI-1 renal
HOP-92 NSCLC = tested on: HOP-92 NSCLC
A498 renal = tested on: A498 renal
CCRF-CEM leukemia = tested on: CCRF-CEM leukemia
UACC-62 melanoma = tested on: UACC-62 melanoma
HT29 colon = tested on: HT29 colon
HS 578T breast = tested on: HS 578T breast
DU-145 prostate = tested on: DU-145 prostate
T-47D breast = tested on: T-47D breast

CC(=O)[O-].[Zn].c1ccc(/C(=N\Nc2ccccn2)c2ccccn2)cc1
GI50 (SK-OV-3 ovarian): 0.507 µM | TGI (SK-OV-3 ovarian): 2.79 µM | TGI (CAKI-1 renal): 6.33 µM | GI50 (HOP-92 NSCLC): 0.0122 µM | TGI (HOP-92 NSCLC): 13.3 µM | TGI (A498 renal): 9.16 µM | TGI (CCRF-CEM leukemia): 0.22 µM and 1.22 µM | GI50 (UACC-62 melanoma): 0.0476 µM | TGI (UACC-62 melanoma): 0.67 µM and 1.17 µM | GI50 (HT29 colon): 1.09 µM | TGI (HT29 colon): 4.13 µM

Cc1ccc(C=NC23CC4CC(CC(C4)C2)C3)cc1
TGI (SK-OV-3 ovarian): > 100 µM | TGI (CAKI-1 renal): > 100 µM | TGI (A498 renal): > 100 µM | TGI (HT29 colon): > 100 µM

CC1CCCc2c1c1ccc3c(O)cccc3c1oc2=O (stereo not drawn)
TGI (SK-OV-3 ovarian): 61.6 µM | TGI (CAKI-1 renal): > 100 µM | TGI (CCRF-CEM leukemia): > 100 µM | TGI (UACC-62 melanoma): > 100 µM | TGI (HT29 colon): > 100 µM

O=C(NC1C2CC3CC(C2)CC1C3)/C(Cl)=C1/Sc2ccccc2NC1=O (stereo not drawn)
TGI (CAKI-1 renal): > 100 µM | TGI (HOP-92 NSCLC): > 100 µM | TGI (A498 renal): > 100 µM | TGI (CCRF-CEM leukemia): > 100 µM | TGI (UACC-62 melanoma): > 100 µM | TGI (HT29 colon): > 100 µM

COc1nc2c(nc(N)n2C2OCC(O)C(O)C2O)c(=O)n1C (stereo not drawn)
TGI (SK-OV-3 ovarian): > 100 µM | TGI (CAKI-1 renal): > 100 µM | TGI (HOP-92 NSCLC): > 100 µM | TGI (A498 renal): > 100 µM | TGI (CCRF-CEM leukemia): > 100 µM | TGI (UACC-62 melanoma): > 100 µM | TGI (HT29 colon): > 100 µM

COc1ccc2c(c1)c(-c1ccc(-c3cn(C)c4ccc(OC)cc34)[nH]1)cn2C
GI50 (SK-OV-3 ovarian): 3.19 µM | TGI (SK-OV-3 ovarian): 20.9 µM | GI50 (CAKI-1 renal): 3.36 µM | TGI (CAKI-1 renal): 11.2 µM | GI50 (HOP-92 NSCLC): 2.58 µM | TGI (HOP-92 NSCLC): 7.21 µM | GI50 (A498 renal): 10.9 µM | TGI (A498 renal): 49.1 µM | GI50 (CCRF-CEM leukemia): 2.03 µM | TGI (CCRF-CEM leukemia): 5.8 µM | GI50 (HS 578T breast): 1.36 µM | TGI (HS 578T breast): 4.24 µM | GI50 (UACC-62 melanoma): 2.14 µM | TGI (UACC-62 melanoma): 6.55 µM | GI50 (HT29 colon): 9.38 µM | TGI (HT29 colon): 42 µM | GI50 (DU-145 prostate): 10.6 µM | TGI (DU-145 prostate): 31.1 µM

CCN(CC)c1ccc(N=C2C=C(Cl)C(=O)c3ncccc32)c(C)c1
TGI (SK-OV-3 ovarian): 67.9 µM | TGI (CAKI-1 renal): 12 µM | TGI (HOP-92 NSCLC): 7.2 µM | TGI (CCRF-CEM leukemia): > 100 µM | TGI (UACC-62 melanoma): 24.7 µM | TGI (HT29 colon): 30.2 µM

CS(=O)(=O)N(CCC#N)c1ccc(C=O)cc1
TGI (SK-OV-3 ovarian): > 100 µM | TGI (CAKI-1 renal): > 100 µM | TGI (A498 renal): > 100 µM | TGI (UACC-62 melanoma): > 100 µM | TGI (HT29 colon): > 100 µM

N#Cc1ccc(Oc2cccc(Oc3ccccc3)c2)cc1C#N
GI50 (SK-OV-3 ovarian): > 100 µM | TGI (SK-OV-3 ovarian): > 100 µM | GI50 (CAKI-1 renal): > 100 µM | TGI (CAKI-1 renal): > 100 µM | GI50 (HOP-92 NSCLC): > 100 µM | TGI (HOP-92 NSCLC): > 100 µM | TGI (A498 renal): > 100 µM | TGI (CCRF-CEM leukemia): > 100 µM | GI50 (UACC-62 melanoma): > 100 µM | TGI (UACC-62 melanoma): > 100 µM | GI50 (HT29 colon): > 100 µM | TGI (HT29 colon): > 100 µM

O=C(O)c1ccccc1N=Nc1ccc2oc(=O)c(C(=O)Nc3ccccc3)cc2c1
TGI (SK-OV-3 ovarian): > 100 µM | TGI (CCRF-CEM leukemia): > 100 µM | TGI (UACC-62 melanoma): 71.1 µM | TGI (HT29 colon): > 100 µM

CN(C)CCCCn1ccc2c1C(=O)c1c(c(O)c3ccccc3c1O)C2=O
GI50 (SK-OV-3 ovarian): 11.4 µM | TGI (SK-OV-3 ovarian): 24 µM | GI50 (CAKI-1 renal): 4.02 µM | TGI (CAKI-1 renal): 17.5 µM | GI50 (CCRF-CEM leukemia): 1.32 µM | TGI (CCRF-CEM leukemia): 4.54 µM | GI50 (HS 578T breast): 33.1 µM | TGI (HS 578T breast): 60.9 µM | GI50 (HT29 colon): 5.53 µM | TGI (HT29 colon): 18.4 µM | GI50 (DU-145 prostate): 20.1 µM | TGI (DU-145 prostate): 41.9 µM | GI50 (T-47D breast): 3.77 µM | TGI (T-47D breast): 22.8 µM

CCn1c(=O)c2ccccc2n2c(=O)c3cc4ccccc4cc3nc12
TGI (SK-OV-3 ovarian): > 100 µM | TGI (CAKI-1 renal): > 100 µM | TGI (A498 renal): > 100 µM | TGI (CCRF-CEM leukemia): > 100 µM | TGI (UACC-62 melanoma): > 100 µM | TGI (HT29 colon): > 100 µM
